Patent US10363251B2, “(+)-morphinans as antagonists of toll-like receptor 9 and therapeutic uses thereof” (Mallinckrodt LLC, priority 2009, dated 2019)

Target: T1, TLR9 (Homo sapiens, UniProt Q9NR96)
T1 construct: expressed in transfected cells; host or cells: HEK293
T1 sequence (Q9NR96 26-1032): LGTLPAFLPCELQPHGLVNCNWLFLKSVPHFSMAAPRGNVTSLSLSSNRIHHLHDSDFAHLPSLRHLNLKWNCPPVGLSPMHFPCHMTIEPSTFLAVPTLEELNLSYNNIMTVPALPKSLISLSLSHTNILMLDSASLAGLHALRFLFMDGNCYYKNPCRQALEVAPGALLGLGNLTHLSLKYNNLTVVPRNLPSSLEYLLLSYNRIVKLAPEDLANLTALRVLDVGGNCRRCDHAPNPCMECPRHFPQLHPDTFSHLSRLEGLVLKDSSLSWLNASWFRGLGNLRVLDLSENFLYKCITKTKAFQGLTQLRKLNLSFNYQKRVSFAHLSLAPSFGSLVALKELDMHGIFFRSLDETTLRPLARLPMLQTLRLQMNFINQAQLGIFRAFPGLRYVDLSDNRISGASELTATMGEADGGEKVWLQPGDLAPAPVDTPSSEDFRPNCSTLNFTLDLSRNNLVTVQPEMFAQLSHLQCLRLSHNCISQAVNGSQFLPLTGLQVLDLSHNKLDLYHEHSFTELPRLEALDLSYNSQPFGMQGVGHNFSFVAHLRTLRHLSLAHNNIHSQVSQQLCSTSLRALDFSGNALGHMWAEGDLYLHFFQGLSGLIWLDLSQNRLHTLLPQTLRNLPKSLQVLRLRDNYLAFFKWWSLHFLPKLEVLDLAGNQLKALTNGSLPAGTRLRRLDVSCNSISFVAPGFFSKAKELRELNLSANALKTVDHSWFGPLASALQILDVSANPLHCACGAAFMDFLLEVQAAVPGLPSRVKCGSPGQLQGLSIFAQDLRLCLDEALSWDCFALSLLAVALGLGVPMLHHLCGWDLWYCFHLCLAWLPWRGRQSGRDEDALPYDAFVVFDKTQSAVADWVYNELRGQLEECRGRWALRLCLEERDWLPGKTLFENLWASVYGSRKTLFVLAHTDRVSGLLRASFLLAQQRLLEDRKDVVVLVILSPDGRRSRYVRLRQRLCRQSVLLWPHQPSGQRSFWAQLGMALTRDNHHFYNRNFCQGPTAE
Experiment: TLR9 screening of (+)-morphinan library, SEAP reporter in HEK293 cells expressing TLR9
Assay type: cell-based
Details: activator ODN2006; for OD 650 nm (mean ± sd): control (no activator) 0.14, activator 1.42 OD; for inhibition at 0.1 µM: HEK293, read-out: % Inhibition (mean), 100 nM; for inhibition at 10 µM: HEK293, read-out: % Inhibition (mean), 10 μM
Method: The secreted alkaline phosphatase reporter is under the control of a promoter inducible by the transcription factor NF-κB. A library of more than 100 (+)-morphinan compounds was screened for TLR9 antagonist activity by assessing NF-κB activation in the HEK293 cells expressing TLR9. This reporter gene allows the monitoring of signaling through the TLR, based on the activation of NF-κB.
In a 96-well plate (200 μL total volume) containing 50,000 cells/well, 20 μL of each sample compound was added to wells, in triplicate, followed by a 30 minute incubation at 37° C. and 5% CO2. After the 30 minutes of incubation, 20 μL of the activator ODN2006 was added to each well. The media added to the wells was designed for the detection of NF-κB induced SEAP expression. After a 16-20 hr incubation period, the OD at 650 nm was read on a Beckman Coulter AD 340C Absorbance Detector. All compounds were tested at concentrations of 10 μM and 100 nM.

Structure (SMILES)	OD 650 nm (mean ± sd) (100 nM) [OD]	OD 650 nm (mean ± sd) (10 μM) [OD]	inhibition at 0.1 µM [%]	inhibition at 10 µM [%]	% Inhibition (mean) (100 nM, 0.1 µM) [%]	% Inhibition (mean) (10 μM) [%]
COc1ccc2c3c1OC1C(O)CC[C@@H]4[C@H](C2)N(C)CC[C@@]314 (some centres unmarked) [II-7]	1.32 ± 0.08	0.13 ± 0.02	7	91	–	–
COc1ccc2c3c1OC1C(OC(C)=O)CCC4C(C2)N(C)CC[C@]341 (some centres unmarked) [II-8]	1.15 ± 0.07	1.33 ± 0.06	19	7	–	–
COc1ccc2c3c1O[C@@H]1C(NC(C)=O)CC[C@@H]4[C@H](C2)N(C)CC[C@@]314 (some centres unmarked) [II-9]	1.25 ± 0.09	1.00 ± 0.02	12	29	–	–
COc1ccc2c3c1O[C@@H]1C(NCCO)CC[C@@H]4[C@H](C2)N(C)CC[C@@]314 (some centres unmarked) [II-10]	0.24 ± 0.02	0.10 ± 0.01	83	93	–	–
COc1cc(Br)c2c3c1OC1C(=O)CC[C@@H]4[C@H](C2)N(C)CC[C@@]314 (some centres unmarked) [II-11]	1.22 ± 0.10	0.44 ± 0.05	14	69	–	–
COc1ccc2c3c1O[C@@H]1C(=O)CC[C@@H]4[C@H](C2)NCC[C@@]314 [II-12]	1.12 ± 0.08	0.81 ± 0.03	21	43	–	–
COC(=O)/C=C/c1cc(OC)c(O)c2c1CC1C3CCC(=O)C[C@@]23CCN1CC1CC1 (some centres unmarked) [II-14]	1.18 ± 0.05	0.13 ± 0.00	17	91	–	–
COC(=O)/C=C/c1cc(OC)c2c3c1CC1C4CCC(=O)[C@@H](O2)[C@@]34CCN1CC1CC1 (some centres unmarked) [II-15]	1.22 ± 0.06	0.23 ± 0.03	14	84	–	–
C=CCN1CC[C@@]23c4c5c(Br)cc(OC)c4O[C@@H]2C(=O)CCC3C1C5 (some centres unmarked) [II-16]	1.43 ± 0.01	1.24 ± 0.11	-1	13	–	–
COc1ccc2c3c1O[C@@H]1C(O)CC[C@@H]4[C@H](C2)N(CC2CC2)CC[C@@]314 (some centres unmarked) [II-17]	1.13 ± 0.10	0.39 ± 0.01	21	72	–	–
C=CCN1CC[C@@]23c4c5ccc(OC)c4OC2C(O)CCC3C1C5 (some centres unmarked) [II-19]	1.19 ± 0.03	0.15 ± 0.01	16	90	–	–
C=CCN1CC[C@@]23c4c5ccc(OC)c4O[C@@H]2C(NC(C)=O)CC[C@@H]3[C@@H]1C5 (some centres unmarked) [II-20]	1.29 ± 0.02	1.07 ± 0.04	9	25	–	–
C=CCN1CC[C@@]23c4c5ccc(OC)c4O[C@@H]2C(=C)CC[C@@H]3[C@@H]1C5 [II-22]	1.31 ± 0.19	0.75 ± 0.06	8	47	–	–
COc1cc(Br)c2c3c1O[C@@H]1C(=O)CCC4C(C2)N(CC2CC2)CC[C@]341 (some centres unmarked) [II-23]	1.16 ± 0.01	0.53 ± 0.05	18	63	–	–
COc1cc(-c2ccoc2)c2c3c1O[C@@H]1C(=O)CCC4C(C2)N(CC2CC2)CC[C@]341 (some centres unmarked) [II-26]	1.08 ± 0.06	0.12 ± 0.00	24	92	–	–
COc1ccc2c3c1O[C@@H]1C(O)CC[C@@H]4[C@H](C2)N(CC2CCC2)CC[C@@]314 (some centres unmarked) [II-28]	1.32 ± 0.08	0.87 ± 0.03	7	39	–	–
COc1ccc2c3c1O[C@@H]1C(=O)CC[C@@H]4[C@H](C2)N(Cc2ccccc2)CC[C@@]314 [II-29]	1.36 ± 0.17	0.33 ± 0.03	4	77	–	–
COc1ccc2c3c1O[C@@H]1C(=O)CC[C@@H]4[C@H](C2)N(C(=O)C2CC2)CC[C@@]314 [II-30]	1.34 ± 0.11	1.13 ± 0.06	–	–	5	20
COc1ccc2c3c1O[C@@H]1C(=O)CC[C@@H]4[C@H](C2)N(C(C)=O)CC[C@@]314 [II-31]	1.40 ± 0.04	1.37 ± 0.11	2	3	–	–
COc1ccc2c3c1O[C@@H]1C(=O)CC[C@@H]4[C@H](C2)N(C(=O)c2ccccc2)CC[C@@]314 [II-33]	1.35 ± 0.15	1.37 ± 0.03	5	3	–	–
COC1=CC=C2[C@@H]3Cc4ccc(OC)c5c4[C@]2(CCN3C)[C@@H]1O5 [II-34]	1.39 ± 0.05	0.94 ± 0.08	2	34	–	–
C=CCN1CC[C@]23C4=CC=C(OC)[C@H]2Oc2c(OC)ccc(c23)C[C@@H]41 [II-35]	1.04 ± 0.08	0.34 ± 0.03	27	76	–	–
COC1=CC=C2[C@@H]3Cc4ccc(OC)c5c4[C@]2(CCN3CC2CC2)[C@@H]1O5 [II-36]	1.14 ± 0.02	0.14 ± 0.01	20	90	–	–
COC1=CC=C2[C@@H]3Cc4ccc(OC)c5c4[C@]2(CCN3CC2CCC2)[C@@H]1O5 [II-37]	1.13 ± 0.07	0.18 ± 0.06	20	87	–	–
COc1ccc2c3c1O[C@@H]1C(=O)CC[C@]4(O)[C@H](C2)N(C)CC[C@@]314 [II-39]	1.23 ± 0.03	1.06 ± 0.06	14	25	–	–
COc1ccc2c3c1O[C@@H]1C(O)CC[C@]4(O)[C@H](C2)N(C)CC[C@@]314 (some centres unmarked) [II-40]	1.41 ± 0.13	1.37 ± 0.07	0	4	–	–
C=C1CC[C@]2(O)[C@@H]3Cc4ccc(OC)c5c4[C@]2(CCN3C)[C@@H]1O5 [II-41]	1.27 ± 0.03	1.02 ± 0.09	11	28	–	–
COc1ccc2c3c1O[C@@H]1C(NC(C)=O)CC[C@]4(O)[C@H](C2)N(C)CC[C@@]314 (some centres unmarked) [II-42]	1.00 ± 0.03	0.14 ± 0.02	29	90	–	–
COc1ccc2c3c1O[C@@H]1C(N)CC[C@]4(O)[C@H](C2)N(C)CC[C@@]314 (some centres unmarked) [II-43]	0.10 ± 0.01	0.09 ± 0.00	93	94	–	–
